Assay results as given in patent US8865750B2, “Small molecule inhibitors of RGS proteins” (The Regents of The University of Michigan, priority 2011, dated 2014).

Target: RGS4/Gα0 interaction (Homo sapiens (Human), UniProt P49798)
Assay: RGS4-GFP membrane translocation (confocal microscopy, HEK-293T)
Format: cell-based
Details: 100 μM where stated
Experimental: Cellular Localization Studies:
HEK-293T cells grown to 80-90% confluency in 6-well dishes in DMEM supplemented with 10% fetal bovine serum and Penicillin (100 units/ml)-Streptomycin (100 μg/ml) under 5% CO2 at 37° C. RGS and Gα0 expression was induced by transient co-transfection with either 250 ng of full-length human RGS4 with an N-terminal GFP tag (RGS4pEGFP-C1) or a C-terminal RGS4-GFP (RGS4pDEST47) and 250 ng of pcDNA3.1 or pcDNA with wildtype human Gα0. Cells were split onto poly-D-lysine coated glass coverslips and cultured for 24-48 hours after transfection before live cell imaging. Images were acquired on an Olympus Fluoview 500 confocal microscope with a 60×1.40 numerical aperture (N.A) oil objective. Images were obtained by taking a series of stacks every 0.5 μm through the cell and combining the images into a composite stack. The light source for the fluorescent studies was a 488 nm laser with a 505-525 nm bandpass filter. Images were quantified using NIH ImageJ software version 1.43r.
Confocal Microscopy: HEK-293T cells grown to 80-90% confluency in 6-well dishes in DMEM supplemented with 10% fetal bovine serum and Penicillin (100 units/ml)-Streptomycin (100 μg/ml) under 5% CO2 at 37° C. […] Images were quantified using NIH ImageJ software version 1.43r.

Chain of RGS4/Gα0 interaction (P49798 whole entry): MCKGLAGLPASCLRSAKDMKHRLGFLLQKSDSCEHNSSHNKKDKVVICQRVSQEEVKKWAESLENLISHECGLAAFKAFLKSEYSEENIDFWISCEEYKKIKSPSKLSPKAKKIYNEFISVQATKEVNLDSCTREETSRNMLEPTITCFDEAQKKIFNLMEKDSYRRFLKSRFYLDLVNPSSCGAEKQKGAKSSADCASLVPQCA

CCCCn1c(=O)sn(CC)c1=O [CCG-203769, 2-ethyl-4-butyl-1,2,4-thiadiazolidine-3,5-dione] was tested. Which “reversal of Gα0-induced RGS4 membrane translocation” value did it give?
The value was “reverses the membrane translocation”.
